According to publication PMC5827777, “Synthesis and biological evaluation of RGD and isoDGR peptidomimetic-α-amanitin conjugates for tumor-targeting” (Beilstein Journal of Organic Chemistry, 2018):
Like-named read-outs stand apart in the source and are kept apart here.

How the values were obtained:
[1] = system: U87 cells (human glioblastoma, αVβ3+); assay: cells; type: cell-based
Protocol: (§1) The cell lines were treated with different concentrations of the free drug α-amanitin and conjugates 7–11 for 96 hours. […]
(§2) described recently.[S1] The SNP profiles matched known profiles or were unique. The purity of the cell lines was validated using the Multiplex cell Contamination Test by Multiplexion (Heidelberg, Germany) as described recently.[S2] No mycoplasma, SMRV or interspecies contamination was detected. U87-MG, MDA-MB 468 and A549 cells were cultivated continuously for not more than 3 months in MEM Eagle´s, DMEM or Ham´s F12 medium, respectively, supplemented with 10% heat inactivated fetus calf serum, L-glutamine and antibiotics. Cell lines were maintained at 37 °C and 5% CO2 in a high humidity atmosphere.
(§3) Cell therapy and viability assay
(§4) Cell viability assays were performed in U87-MG, A549 and MDA-MB 468 cell lines according to the following procedure: 2 × 10^3 cells/well were plated in 96-well black clear bottom plates (Perkin Elmer) and incubated overnight. 1:5 serial dilutions of compounds 7–11 were prepared in cell culture media. The compounds were added to the cell culture and incubated for additional 96 h. Starting concentration of compounds 7–11 in the wells was 1 × 10−5 M and cell viability was determined with the CellTiterGlo 2.0 assay (Promega) in accordance to manufacturer’s instructions. The cell viability was calculated in relation to the non-treated controls for each cell line. All samples were measured in triplicate. Data analysis was carried out using software GraphPad Prism (GraphPad Software Inc., La Jolla, CA, USA).
Competition experiment of compounds 10 and 11
The competition experiment s were performed in U87-MG and MDA-MB 468 cell lines according to the following procedure: 2 × 10^3 cells/well were plated in 96-well black clear bottom plates (Perkin Elmer) and incubated overnight. A solution containing 1 × 10−4 M of the conjugates 10 or 11 and 5 × 10−3 M of cilengitide (50-fold excess of ligand in comparison to the conjugate) was prepared in the growth medium and 1:5 serial dilutions were prepared in cell culture media. The compounds were added to cell culture and incubated for 96 h. The starting concentration of the compounds in the wells was 0.01 mM whereas that of cilengitide was 0.5 mM. The cell viability was determined with the CellTiterGlo 2.0 assay (Promega) in accordance to manufacturer’s instructions and the viability was calculated in relation to the non-treated controls for each cell line. All samples were measured in triplicate. Data analysis was carried out using software GraphPad Prism (GraphPad Software Inc., La Jolla, CA, USA).
(§5) [S1] F. Castro, W. G. Dirks, S. Fähnrich, A. Hotz-Wagenblatt, M. Pawlita, M. Schmitt, Int. J. Cancer […]
(§6) [S2] M. Schmitt, M. Pawlita, Nucleic Acids Res. 2009, 37, e119.

[2] = system: MDA-MB-468 cells (breast adenocarcinoma, αVβ3−); assay: cells; type: cell-based; details: 96 hours treatment; triplicate; read-out: IC50 MDA-MB-468 (αVβ3−), inhibition of cell viability
Protocol: as §1, §2, §3
as §4, with “USA). […]” for “USA).”
as §5, §6

[3] = system: A549 cells (human lung carcinoma, αVβ3−); assay: cells; type: cell-based; details: 96 hours treatment; triplicate; read-out: IC50 A549 (αVβ3−), inhibition of cell viability
Protocol: as §1, §2, §3
as §4, with “USA). […]” for “USA).”

[4] = system: MDA-MB-468 (αVβ3−, αVβ5+, αVβ6+, α5β1−); details: read-out: IC50 MDA-MB-468, inhibition of cell viability, 96 hours
Text: (§7) However, it should be noted that these cell lines overexpress other integrins (α5β1 in U87, αVβ6 in MDA-MB-468, and αVβ5 in both). […]
(§8) described recently.[S1] […] The purity of […]
(§9) the cell lines was validated using the Multiplex cell Contamination Test by Multiplexion (Heidelberg, Germany) as described recently.[S2]
(§10) U87-MG, MDA-MB 468 and A549 cells were cultivated continuously for not more than 3 months in MEM Eagle´s, DMEM or Ham´s F12 medium, respectively, supplemented with 10% heat inactivated fetus calf serum, L-glutamine and antibiotics. Cell lines were maintained at 37 °C and 5% CO2 in a high humidity atmosphere.
as §3
(§11) Cell viability assays were performed in U87-MG, A549 and MDA-MB 468 cell lines according to the following procedure: 2 × 10^3 cells/well were plated in 96-well black clear bottom plates (Perkin Elmer) and incubated overnight. […]
(§12) in cell culture media. The compounds were added to the cell culture and incubated for additional […]
(§13) was determined with the CellTiterGlo 2.0 assay (Promega) in accordance to manufacturer’s instructions. The cell viability was calculated in relation to the non-treated controls for each cell line. All samples were measured in triplicate.
(§14) All samples were measured in triplicate.

[5] = system: U87 (αVβ3+, αVβ5+, αVβ6−, α5β1+); details: read-out: IC50 U87, inhibition of cell viability, 96 hours
Text: as §7, §8, §9, §10, §3, §11, §12, §13, §14

[6] = + 50-fold excess of cilengitide

**Q.** CC[C@H](C)[C@@H]1NC(=O)CNC(=O)[C@@H]2Cc3c([nH]c4cc(OCc5ccc(NC(=O)[C@H](C)NC(=O)[C@@H](NC(=O)CCCC(=O)NCc6ccc(CN7C(=O)[C@H]8CC(=O)N[C@H](C(=O)O)CC(=O)NCC(=O)N[C@@H](CCCNC(=N)N)C(=O)NC[C@H]7C(=O)N8)cc6)C(C)C)cc5)ccc34)[S@+]([O-])C[C@H](NC(=O)CNC1=O)C(=O)N[C@@H](CC(N)=O)C(=O)N1C[C@H](O)C[C@H]1C(=O)N[C@@H]([C@@H](C)[C@@H](O)CO)C(=O)N2 [Compound 10, cyclo[DKP-isoDGR]-Val-Ala-α-amanitin] was tested. Which IC50 ([1]; 96 hours treatment, triplicate, read-out: IC50 U87 (αVβ3+), inhibition of cell viability) did it give?
**A.** 143 ± 33.8 nM

**Q.** And the “more potent than α-amanitin” value ([1]; in U87, A549 and MDA-MB-468 cell lines, Table 3 entry 1 vs entry 5)?
**A.** 2.4–3.1 times

**Q.** And the IC50 [2]?
**A.** 59 ± 23.4 nM

**Q.** And the IC50 [3]?
**A.** 217 ± 98.3 nM

**Q.** And the IC50 [4, 6]?
**A.** 259 ± 55.2 nM

**Q.** What about the IC50 ([4]; without cilengitide) of the same compound?
**A.** 47 ± 21.1 nM

**Q.** And the IC50 [5, 6]?
**A.** 106 ± 11.6 nM

**Q.** And the IC50 ([5]; without cilengitide)?
**A.** 107 ± 26.8 nM
